Experimental data reported in the NIST ThermoML archive (doi:10.1016/j.jct.2017.09.020).
± gives the expanded uncertainty stated by the source.

Settings: Liquid, Ebulliometric method (Recirculating still)

Structure (SMILES)	vapor or sublimation pressure (389.1 K)	vapor or sublimation pressure (404.15 K)	vapor or sublimation pressure (413.57 K)	vapor or sublimation pressure (417.53 K)	vapor or sublimation pressure (433.71 K)	vapor or sublimation pressure (443.3 K)
CCCCCCCCCC(=O)OC [methyl decanoate]	2 ± 0.21 kPa	4 ± 0.42 kPa	6 ± 0.63 kPa			
CCCCCCCCCCCC(=O)OC [methyl dodecanoate]				2 ± 0.21 kPa	4 ± 0.42 kPa	6 ± 0.63 kPa
